What was measured:
murine spleenocytes [1] = assay: Activated caspase 3 in spleenocytes of mice injected ip with LPS and/or T101; type: in vivo; settings: Balb/c mice
Procedure: Four groups of 3 mice each (male Balb/c, 6 wks old, approx. 20 gr.) were injected ip with the following: A—saline (control); B—50 μg LPS (induces activation of monocytes); C —50 μg LPS+1 μg T101; D—1 μg T101. After 24 hours the mice were sacrificed and the spleens were removed. The spleens of the mice of each group were combined and lysed in RIPA buffer in the presence of protease inhibitors, and 30×10^6 lysed spleenocytes from each group were run on SDS-PAGE. A Western blot of the gel was performed with antibody against activated caspase 3.

[2] = test system: human lung carcinoma cells; assay: Induction of apoptosis in human lung carcinoma cells; type: cell-based; settings: not shown
Text: (§1) It may be seen in FIG. 9 that in untreated cells (time 0), a significant level of FLIP but very little caspase 8 are observed. […] It is seen that the changes in FLIP and caspase 8 are time-sensitive, with the greatest changes seen at the short time points (10′), after which their levels gradually return to baseline. Similar results were obtained with other cell lines as well.

[3] = test system: mouse N2A neublastoma cells; assay: Induction of apoptosis in mouse N2A neublastoma cells; type: cell-based; settings: not shown
Text: as §1

[4] = test system: human breast cancer cells; assay: Induction of apoptosis in human breast cancer cells; type: cell-based; settings: not shown
Text: as §1

U937 cells [5] = assay: Time course of FLIP and caspase 8 in T1/ST2 immuno-precipitated from U937 cells; type: cell-based, human
Procedure: The samples were obtained from T1/ST2 immuno-precipitated from U937 cells at different time points after incubation with T101. The antibodies used to detect caspase 8 were against the active cleaved species;
In this example, the time course of the effect of T101 on T1/ST2 receptor-related apoptosis was investigated by following the degradation of FLIP and activation of caspase 8. U937 cells were incubated with T101, and at different time points T1/ST2 was immuno-precipitated from the cells and analyzed by Western blot for the presence of caspase 8 and FLIP.

[6] = Blood cholesterol level in mice after 3 weeks of treatment; type: in vivo; settings: female Balb/C mice, 50 μg/Kg twice a day for 3 weeks, pooled blood, versus saline
Procedure: (§2) Two groups of 7 weeks old female Balb/C mice were injected twice a day for 3 weeks with either T101 (50 μg/Kg) (8 mice), or with saline (control) (7 mice). After 3 weeks, blood was collected from the mice and pooled, and the cholesterol level (mg/DL) was measured.

[7] = Blood liver enzyme levels (AST, ALP, ALT) in mice after 3 weeks of treatment; type: in vivo; settings: female Balb/C mice, 50 μg/Kg twice a day for 3 weeks, versus saline
Procedure: as §2
Liver enzymes levels (μg/L) were measured in the blood of the mice of Example 7. The enzymes measured were aspartate aminotransferase (AST), alkaline phosphatase (ALP) and alanine aminotransferase (ALT).

human glioblastoma cells = assay: Induction of apoptosis in human glioblastoma cells; type: cell-based; settings: not shown
Text: as §1

T1/ST2 receptor = assay: Streptavidin bead pull-down of FC-T1/ST2 by biotin-labeled T101, Western blot; type: binding; settings: T101-bio pre-incubated with FC-T1/ST2 45 min at 4° C., Streptavidin beads
Procedure: An antibody to the T1/ST2 receptor (FC-T1/ST2), and T101 labeled with biotin (T101-bio) were prepared. Streptavidin beads were incubated for 1 hr. at 4° C. with each of the following: A —T101-bio alone; B—Fc-T1/ST2 alone; C—FC-T1/ST2 pre-incubated with T101-bio for 45 min. at 4° C. After incubation, the beads were spun down and washed 3 times with PBS+0.1% Tween 20. The beads were then loaded on SDS-PAGE and a Western blot was performed using antibody against T1/ST2.

U937 cells [8] = assay: Western blot for the 85 kDa cleavage product of PARP in U937 cells; type: cell-based, human
Procedure: U937 cells were treated as in FIG. 1 and loaded on SDS-PAGE, except that the gel was treated with antibody against the 85 kDa cleavage product of PARP, which is produced by the cleavage of PARP by caspase 3, and is active in apoptosis.
The lanes of the gel were loaded with lysed cells which had been incubated with the following concentrations of T101: A —100 ng/ml; B —10 ng/ml; C —1 ng/ml; D —100 pg/ml; E —10 pg/ml; F —0 pg/ml (control). The bands show the location of the 85 kDa cleavage product of PARP.
U937 cells were treated as in FIG. 2 except that some of the cells were not treated with FCS, i.e. not activated. The lysed cells were loaded on SDS-PAGE, which was treated with antibody against the 85 kDa cleavage product of PARP.
The lanes of the gel were loaded with lysed cells, as follows: A—activated cells+0 ng/ml T101 (control) [the result with nonactivated cells was similar]; B—nonactivated cells+100 ng/ml T101; C—activated cells+100 ng/ml T101.

mouse spleenocytes = assay: Expression of VEGFA, VEGFR1 and IL-10 in mouse spleenocytes; type: cell-based; settings: increasing concentrations of T101
Text: HPRT was included as a negative control.
Mouse spleenocytes were challenged without or with increasing concentrations of T101. VEGFA, VEGFR1 and IL-10 expression were compared. VEGFA is a major proangiogenic cytokine, and VEGFR1 is a receptor for VEGFA. HPRT was included as a negative control.

U937 cells [9] = assay: Western blot for activated caspase 3 in FCS-activated U937 cells; type: cell-based, human; settings: U937 cells activated with 10% FCS, 18 hr, 10 pg/ml to 100 ng/ml T101
Procedure: 10^6 U937 cells, a human leukemic monoblast cell line, were incubated for 18 hr at 37° C. in RPMI buffer+10% fetal calf serum (FCS) with different concentrations of T101. The FCS causes activation of the U937 cells. The cells were then lysed in RIPA buffer in the presence of protease inhibitors, and run on SDS-PAGE. A Western blot of the gel was performed with anti-caspase 3 antibody.
The lanes of the gel were loaded with lysed cells which had been incubated with the following concentrations of T101: A,B—0 pg/ml (control); C—10 pg/ml; D—100 pg/ml; E—1 ng/ml; F—10 ng/ml; G—100 ng/ml.
Thus, T101 can be expected to cause apoptosis in activated monocytes, thereby reducing the possibility of development of a disease associated with activated monocytes, such as atherosclerosis.

U937 cells [10] = assay: Western blot for phosphorylated JNK, phosphorylated MAPK p38 and IκB in U937 cells; type: cell-based, human
Procedure: The U937 cells were incubated for 30 min. with (+) or without (−) T101;
In order to determine the effect of T101 on various apoptotic signaling pathways, JNK and MAP kinase phosphorylation were measured.
(§3) In FIG. 10, it can be seen that T101 causes an increase in both JNK and MAPK phosphorylation 30 min after T101 application, while no change in the IκB protein level was detected. No change of IκB levels was detected at shorter time points as well. Therefore, it is assumed that the JNK pathway and MAP kinase pathway are activated by T101, while NF-κB remains unactivated. However, not only the caspase 8 pathway is activated upon T1/ST2 activation by T101, but also the caspase 9 dependent cascade is stimulated.

[11] = test system: murine mammary gland carcinoma cells; assay: Induction of apoptosis in murine mammary gland carcinoma cells; type: cell-based; settings: not shown
Text: as §1

murine spleenocytes [12] = assay: Activated caspase 6 in spleenocytes of mice injected ip with LPS and/or T101; type: in vivo; settings: Balb/c mice
U937 cells [13] = assay: Western blot for Bcl-2 and full length caspase 9 in U937 cells; type: cell-based, human
Procedure: as §3

[14] = 1 μg T101 without LPS, 24 hours
[15] = T1/ST2 immuno-precipitate from U937 cells, greatest change at 10′

T101: human thymus peptide, 51 amino acids: LHLWLSGEPVQSSGTKDMRSKSDSKRVSDKQLISKAVWWTFFLPSTLWERK (listed as Homo sapiens)
activated caspase 3 in spleenocytes (murine spleenocytes [1]; [14]): inhibition of activated caspase 3 | activated caspase 3 in spleenocytes (murine spleenocytes [1]; 50 μg LPS+1 μg T101, 24 hours, versus control): increased amount of activated caspase 3 | induction of apoptosis [2]: able to induce apoptosis | induction of apoptosis [3]: able to induce apoptosis | induction of apoptosis [4]: able to induce apoptosis | active caspase 8 (U937 cells [5]; [15]): concomitant increase of active caspase 8 | level of FLIP (U937 cells [5]; [15]): level of FLIP decreases | inactive caspase 8 (U937 cells [5]; U937 cells, not shown): decrease of the inactive caspase 8 | cholesterol level in the blood [6]: significant decrease | liver enzyme levels in the blood (AST, ALP, ALT) [7]: significant decrease | induction of apoptosis (human glioblastoma cells): able to induce apoptosis | binding to the T1/ST2 receptor (T1/ST2 receptor): binds to the T1/ST2 receptor | cleavage of PARP, activated versus nonactivated monocytes (U937 cells [8]; U937 cells with or without FCS, 100 ng/ml T101): induced the cleavage of PARP only in the activated monocytes | amount of the 85 kDa cleavage product of PARP (U937 cells [8]; activated U937 cells, 10 pg/ml T101): significantly increased | expression of IL-10 (mouse spleenocytes): enhanced | expression of VEGFA (mouse spleenocytes): inhibits the expression | expression of VEGFR1 (mouse spleenocytes): inhibits the expression | activated caspase 3 (Western blot) (U937 cells [9]): increased activated caspase 3 | JNK phosphorylation (U937 cells [10]; 30 min after T101 application): increase | MAPK phosphorylation (U937 cells [10]; 30 min after T101 application): increase | IκB protein level (U937 cells [10]; 30 min and shorter time points): no change | induction of apoptosis [11]: able to induce apoptosis | caspase 6 in nonactivated spleenocytes (murine spleenocytes [12]; [14]): inhibiting caspase 6 | caspase 6 in activated spleenocytes (murine spleenocytes [12]; 50 μg LPS+1 μg T101, 24 hours): induces caspase 6 | Bcl-2 protein (U937 cells [13]): very pronounced degradation | full-length caspase 9 protein (U937 cells [13]): cleavage of the full-length caspase 9 protein

— patent US20100204097A1, “THERAPEUTIC METHODS USING A THYMUS PEPTIDE” (IMMUNE SYSTEM KEY LTD., priority 2006, published 2010)
